Measurements taken from patent publication US20160349268A1, “STEPWISE ASSEMBLED CAPTURE COMPOUNDS COMPRISING A CLEAVABLE FUNCTION AND METHOD FOR ISOLATING AND/OR CHARACTERIZING BIOMOLECULES OR BIOMOLECULE FRAGMENTS, IN PARTICULAR PROTEINS OR PROTEIN FRAGMENTS, OF COMPLEX MIXTURES” (CAPROTEC BIOANALYTICS GMBH, priority 2014, published 2016).
Each block holds one molecule with its values, some of them ahead of it.

Tests used:
Type in all cases: physicochemical
[1] = Cleavage of 1 (CPT600) after photo-reaction in solution (UV irradiation, HCl treatment, RP-HPLC UV/MS); details: BPC + All MS
Procedure: In a 100 μL PCR tube, 20 μL 73 μM 1 (CPT600) was irradiated at 4° C. for 5 min in the caproBox (310 nm version, caprotec bioanalytics GmbH, Berlin, Germany). 1.7 μL 37% HCl was added, mixed and the solution was incubated on a thermoshaker at 37° C. for 2 h. Then 100 μL Milli-Q water and 9 μL 2N NaOH were added and mixed. The resulting solution as analyzed by RP-HPLC coupled to a UV detector and a mass spectrometer (FIG. 6 and Table 2a) as described in example 1. As a control, the same sample but with only very brief incubation under acidic conditions (r.t. for about 10 s instead of 37° C. for 2 h) was prepared (FIG. 7 and Table 2b).

[2] = Cleavage of 1 (CPT600) after photo-reaction on CPG-pN3, with CPG-Ac and in-solution controls; design: Area: unit not given here
Procedure: 20 μL 10 mg/mL 1 (CPT600)-loaded CPG-pN3 from example 1 were transferred into a 100 μL PCR tube, centrifuged, the supernatant was discarded and 20 μL in water was added. The suspension was irradiated at 4° C. for 5 min (with re-suspending every 30 s) in the caproBox (310 nm version, caprotec bioanalytics GmbH, Berlin, Germany). 1.7 μL 37% HCl was added, mixed and the solution was incubated on a thermoshaker at 37° C. for 2 h. Then 100 μL Milli-Q water and 9 μL 2N NaOH were added and mixed. After centrifugation, the resulting supernatant was analyzed by RP-HPLC coupled to a UV detector and a mass spectrometer as described in example 1. As a control, the same sample but with only very brief incubation under acidic conditions (r.t. for about 10 s instead of 37° C. for 2 h) was prepared.
Further controls included using 1 (CPT600)-treated CPG-Ac from example 1 (short and long acid treatment) instead of 1 (CPT600)-loaded CPG-pN3 and 1 (CPT600) in solution (short and long acid treatment) as described in example 2. All six experiments were performed side-by-side.

[3] = Cleavage reaction of photo-reacted compound 11 (12) with HCl / 2-nitrobenzhydrazide, LC-MS; details: for Area/a.u. (LC-MS EIC peak): 45 μM 12, 1 h room temperature
Procedure: A solution of 75 μL 56 μM 11 (CPT727, Capture Compound bearing tetrazine as sorting function and a chemically cleavable photo-reactivity function) in 50% acetonitrile was irradiated with UV light (λmax=310 nm) for 5 min at 4° C. in the caproBox to activate the reactivity function yielding 12 (Scheme 12).
Cleavage of the photo-reacted reactivity function (15) from 12 yielding also 17 as a product (Scheme 13) was investigated under several conditions summarized in Table 5. The reaction was performed in a final volume of 10 μl for 1 h at room temperature. Each reaction mixture contained 8 μl of the above described solution of 12 (45 μM final concentration), 1 μl 100 mM or 10 mM 2-nitrobenzhydrazide in DMSO or just DMSO and 1 μl 100 mM or 10 mM HCl in water or just water. Analysis was performed by LC-MS. Integration of peak areas corresponding to the respective species is included into Table 5.

[4] = 1 (CPT600) after UV irradiation and HCl 37 °C 2 h
[5] = In solution, 0 h HCl, BPC + All MS
[6] = In solution, 0 h HCl, UV 254 nm
[7] = CPG-Ac instead of CPG-pN3, 2 h acidic treatment
[8] = In solution, 2 h HCl, UV 254 nm
[9] = In solution, 2 h HCl, BPC + All MS
[10] = On CPG-Ac, 2 h HCl, BPC + All MS
[11] = On CPG-pN3, 2 h HCl, BPC + All MS
[12] = c(HCl) 0 mM, c(2-nitrobenzhydrazide) 0 mM
[13] = c(HCl) 0 mM, c(2-nitrobenzhydrazide) 1 mM
[14] = c(HCl) 0 mM, c(2-nitrobenzhydrazide) 10 mM
[15] = c(HCl) 1 mM, c(2-nitrobenzhydrazide) 0 mM
[16] = c(HCl) 1 mM, c(2-nitrobenzhydrazide) 1 mM
[17] = c(HCl) 1 mM, c(2-nitrobenzhydrazide) 10 mM
[18] = c(HCl) 10 mM, c(2-nitrobenzhydrazide) 0 mM
[19] = c(HCl) 10 mM, c(2-nitrobenzhydrazide) 1 mM
[20] = c(HCl) 10 mM, c(2-nitrobenzhydrazide) 10 mM

Area (MS-peak integration) [1, 4]: 167125312 | Area Frac. % [1, 4]: 2.52%
Structure (SMILES): C#CCNC(=O)C1(C(=O)NCCCC[C@@H](C(=O)NCCc2ccc(NC(=O)CCCCCCC(=O)O)cc2)[N+](C)(C)C)COC(c2ccc(C3(C(F)(F)F)N=N3)cc2)OC1 (stereo partly shown) [Compound 2]

Area (MS-peak integration) [1, 4]: 432395200 | Area Frac. % [1, 4]: 6.52% | Area (MS-peak integration) ([1]; 1 (CPT600) after UV irradiation, very brief acid (r.t. about 10 s, control)): 3091667200 | Area [2, 5]: 2114062848 | Area Frac % [2, 5]: 100.00% | Area [2, 6]: 31.679 | Area Frac % [2, 6]: 100.00%
Structure (SMILES): C#CCNC(=O)C1(C(=O)NCCCC[C@@H](C(=O)NCCc2ccc(NC(=O)CCCCCCC(=O)NO)cc2)[N+](C)(C)C)COC(c2ccc(C(O)C(F)(F)F)cc2)OC1 (stereo partly shown) [Compound 3]

Area (MS-peak integration) [1, 4]: 386267200 | Area Frac. % [1, 4]: 5.82%
Structure (SMILES): C#CCNC(=O)C1(C(=O)NCCCC[C@@H](C(=O)NCCc2ccc(NC(=O)CCCCCCC(=O)O)cc2)[N+](C)(C)C)COC(c2ccc(C(O)C(F)(F)F)cc2)OC1 (stereo partly shown) [Compound 4]

amount of cleavage fragment relative to the respective CPG-pN3 sample (UV peak areas) [2, 7]: 8.0% | amount of cleavage fragment relative to the respective sample in solution (UV peak areas) [2, 7]: 3.9% | Area [2, 8]: 63.355 | Area Frac % [2, 8]: 55.35% | Area ([2]; On CPG-Ac, 2 h HCl, UV 254 nm): 2.4903 | Area Frac % ([2]; On CPG-Ac, 2 h HCl, UV 254 nm): 30.94% | Area ([2]; On CPG-pN3, 2 h HCl, UV 254 nm): 30.9728 | Area Frac % ([2]; On CPG-pN3, 2 h HCl, UV 254 nm): 85.18% | amount of cleavage fragment relative to the respective sample in solution (UV peak areas) ([2]; UV-irradiated 1 (CPT600)-loaded CPG-pN3, 2 h acidic treatment): 48.9%
Structure (SMILES): O=Cc1ccc(C(O)C(F)(F)F)cc1 (stereo not shown) [Compound 6]

Area (MS-peak integration) [1, 4]: 1798498944 | Area Frac. % [1, 4]: 27.10% | amount in supernatant of CPG bead samples compared to solution sample (base peak MS peak areas) ([2]; 2 h acidic treatment): 16.1% | Area [2, 9]: 1793367808 | Area Frac % [2, 9]: 35.46% | Area [2, 8]: 15.084 | Area Frac % [2, 8]: 13.18% | Area [2, 10]: 114680936 | Area Frac % [2, 10]: 41.23% | Area [2, 11]: 288188416 | Area Frac % [2, 11]: 65.33%
Structure (SMILES): C#CCNC(=O)C(CO)(CO)C(=O)NCCCC[C@@H](C(=O)NCCc1ccc(NC(=O)CCCCCCC(=O)O)cc1)[N+](C)(C)C [Compound 7]

fraction cleaved ([3]; 1 mM or higher concentration of HCl alone, room temperature, within 1 h): more than 60% | detection of starting material ([3]; 10 mM HCl and 1 mM or 10 mM 2-nitrobenzhydrazide): no longer detected | Area/a.u. (LC-MS EIC peak) [3, 12]: 865231808 a.u. | Area/a.u. (LC-MS EIC peak) [3, 13]: 601044672 a.u. | Area/a.u. (LC-MS EIC peak) [3, 14]: 616590720 a.u. | Area/a.u. (LC-MS EIC peak) [3, 15]: 315121856 a.u. | Area/a.u. (LC-MS EIC peak) [3, 16]: 130056936 a.u. | Area/a.u. (LC-MS EIC peak) [3, 17]: 5361744 a.u. | Area/a.u. (LC-MS EIC peak) [3, 18]: 17781000 a.u.
Structure (SMILES): Cc1nnc(-c2ccc(CN(CC(=O)NCCCCNc3ncnc4c3ncn4C3OC(CSCC[C@H](N)C(=O)O)C(O)C3O)C(=O)CC/C=N/N(C)C(=O)c3ccc(C(O)C(F)(F)F)cc3)cc2)nn1 (stereo partly shown) [Compound 12]

Area/a.u. (LC-MS EIC peak) [3, 12]: 15540301 a.u. | Area/a.u. (LC-MS EIC peak) [3, 13]: 19033696 a.u. | Area/a.u. (LC-MS EIC peak) [3, 14]: 20155070 a.u. | Area/a.u. (LC-MS EIC peak) [3, 15]: 75526584 a.u. | Area/a.u. (LC-MS EIC peak) [3, 16]: 93782304 a.u. | Area/a.u. (LC-MS EIC peak) [3, 17]: 120971320 a.u. | Area/a.u. (LC-MS EIC peak) [3, 18]: 101335752 a.u. | Area/a.u. (LC-MS EIC peak) [3, 19]: 119463976 a.u. | Area/a.u. (LC-MS EIC peak) [3, 20]: 130339744 a.u.
Structure (SMILES): CN(N)C(=O)c1ccc(C(O)C(F)(F)F)cc1 (stereo not shown) [Compound 15]

Area/a.u. (LC-MS EIC peak) [3, 13]: 50293356 a.u. | Area/a.u. (LC-MS EIC peak) [3, 14]: 116403456 a.u. | Area/a.u. (LC-MS EIC peak) [3, 16]: 623734464 a.u. | Area/a.u. (LC-MS EIC peak) [3, 17]: 1157550976 a.u. | Area/a.u. (LC-MS EIC peak) [3, 19]: 694334592 a.u. | Area/a.u. (LC-MS EIC peak) [3, 20]: 1188207104 a.u.
Structure (SMILES): Cc1nnc(-c2ccc(CN(CC(=O)NCCCCNc3ncnc4c3ncn4C3OC(CSCC[C@H](N)C(=O)O)C(O)C3O)C(=O)CC/C=N/NC(=O)c3ccccc3[N+](=O)[O-])cc2)nn1 (stereo partly shown) [Compound 17]
